According to patent publication US12697326B2, “Methods of treating hepatic encephalopathy” (SALIX PHARMACEUTICALS, INC., priority 2008, dated 2026):

Columns and labels:
patients with HE = settings: 6-month study; rifaximin 1200 mg/day, neomycin 3 g/day; 14 days on, 14 days off per month; cited from earlier work
[1] = tested on: asterixis grade in subjects with HE; assay: Time to any increase from baseline in asterixis grade, first study; format: in vivo, human; settings: for Probability of no increase in asterixis grade: Kaplan-Meier estimate, ITT; for Probability of no increase in asterixis grade / Cummulative number of events (increase in asterixis grade) / Number of events (increase in asterixis grade): Rifaximin N = 140; for Cummulative number of events (increase in asterixis grade) / Number of events (increase in asterixis grade): ITT population
Procedure: Asterixis (flapping tremor) was determined with the subject holding both arms and forearms extended with wrists dorsiflexed and fingers open for ≥30 seconds. Asterixis was measured on a continuum of 5 grades, e.g., grades 0 and 4=no abnormal movement vs. almost continuous flapping motions, respectively as shown below: • Grade 0=No tremors; • Grade 1=Rare flapping motions; • Grade 2=Occasional, irregular flaps; • Grade 3=Frequent flaps; and • Grade 4=Almost continuous flapping motions.
Efficacy in regard to asterixis grade was measured as time to any increase from baseline in asterixis grade.
(§1) FIG. 12 illustrates time to any increase from baseline in asterixis grade by treatment group in the ITT population in the first study. Table 21 presents estimates of the proportions of subjects who had any increase in asterixis grade over the course of the Treatment Period and results of statistical analyses. Subjects who discontinued prior to experiencing an increase in asterixis grade and prior to completion of the 6-month treatment period were censored at the time of discontinuation.

[2] = tested on: Conn score and asterixis grade in subjects with HE; assay: Changes from baseline in Conn scores and asterixis grades, second study; format: in vivo, human
Source text: Normalizing for subject exposure, this represents a hospitalization rate of 0.60 event/PEY. A total of 59 were hospitalized due HE episodes (e.g., HE-caused). Normalizing for subject exposure, this represents an HE-caused hospitalization rate of 0.29 event/PEY. […] All subjects were capable of worsening over time, and 24/266 subjects (9.0%) did so by 1 or 2 grades.
The last visit for the second study is the last visit recorded for the interim analysis.

[3] = tested on: Conn score (mental state grade) in subjects with HE; assay: Time to any increase from baseline in Conn score, first study; format: in vivo, human
Source text: Measurements of change in mental status may be done, for example, by the Conn score (also known as the West Haven score). The Conn score has been widely used as a measure of mental state in HE studies and is based on the criteria of Parsons-Smith as modified by Conn. Asterixis will not be considered when assessing the subject's status using the Conn scoring criteria listed below.
The scale used in the Conn scoring system is provided below. • Grade 0=No personality or behavioral abnormality detected • Grade 1=Trivial lack of awareness, euphoria or anxiety; shortened attention span; impairment of addition or subtraction • Grade 2=Lethargy; disorientation for time; obvious personality change; inappropriate behavior • Grade 3=Somnolence to semi-stupor, responsive to stimuli; confused; gross disorientation; bizarre behavior • Grade 4=Coma; unable to test mental state
as §1, with “11” for “12”, “Conn score” for “asterixis grade”, “population.” for “population in the first study.”, “20” for “21”

[4] = human, in vivo
[5] = tested on: Staphylococcus, Streptococcus, Enterococcus, and Enterobacteriaceae; settings: cited from earlier work
[6] = tested on: Epworth Sleepiness Scale in subjects with HE; assay: Epworth Sleepiness Scale total score; format: in vivo, human; settings: 550 mg BID
Source text: Total scores for the Epworth Sleepiness Scale were computed and summarized at baseline and Days 28, 56, 84, 112, 140 and 168 using descriptive statistics. Treatment differences for mean change in total scores from baseline to Days 28, 56, 84, 112, 140 and 168 were summarized and compared between treatments.

[7] = Treatment interval 0 to <28 days
[8] = Treatment interval 28 to <56 days
[9] = Treatment interval 56 to <84 days
[10] = Treatment interval 84 to <140 days
[11] = Treatment interval 140 to <168 days
[12] = any increase from baseline in asterixis grade, 550 mg BID, N = 140, Days >=168
[13] = any increase from baseline in asterixis grade; 550 mg BID; N = 140; Days [0-28)
[14] = any increase from baseline in asterixis grade; 550 mg BID; N = 140; Days [28-56)
[15] = any increase from baseline in asterixis grade; 550 mg BID; N = 140; Days [56-84)
[16] = any increase from baseline in asterixis grade; 550 mg BID; N = 140; Days [84-140)
[17] = any increase from baseline in asterixis grade; 550 mg BID; N = 140; Days [140-168)
[18] = any increase from baseline in Conn score, 550 mg BID, N = 140, Days >=168
[19] = any increase from baseline in Conn score; 550 mg BID; N = 140; Days [0-28)
[20] = any increase from baseline in Conn score; 550 mg BID; N = 140; Days [28-56)
[21] = any increase from baseline in Conn score; 550 mg BID; N = 140; Days [56-84)
[22] = any increase from baseline in Conn score; 550 mg BID; N = 140; Days [84-140)
[23] = any increase from baseline in Conn score; 550 mg BID; N = 140; Days [140-168)
[24] = first study, ITT, first increase in Conn score, N = 140, treatment interval 0 to <28 days
[25] = first study, ITT, first increase in Conn score, N = 140, treatment interval 28 to <56 days
[26] = first study, ITT, first increase in Conn score, N = 140, treatment interval 56 to <84 days
[27] = first study, ITT, first increase in Conn score, N = 140, treatment interval 84 to <140 days
[28] = first study, ITT, first increase in Conn score, N = 140, treatment interval 140 to <168 days
[29] = first study, ITT, first increase in Conn score, N = 140, treatment interval ≥168 days

## CO[C@H]1/C=C/O[C@@]2(C)Oc3c(C)c(O)c4c(O)c(c5c(nc6cc(C)ccn65)c4c3C2=O)NC(=O)/C(C)=C\C=C\[C@H](C)[C@H](O)[C@@H](C)[C@@H](O)[C@@H](C)[C@H](OC(C)=O)[C@@H]1C [Rifaximin]
Patients with HE
  efficacy in patients with HE, rifaximin versus neomycin: comparable efficacy
[1]; [7]
  Probability of no increase in asterixis grade: 1.0000
  Cummulative number of events (increase in asterixis grade): 13
[1]; [8]
  Probability of no increase in asterixis grade: 0.9048
  Cummulative number of events (increase in asterixis grade): 20
  Number of events (increase in asterixis grade): 7
[1]; [9]
  Probability of no increase in asterixis grade: 0.8499
  Cummulative number of events (increase in asterixis grade): 27
  Number of events (increase in asterixis grade): 7
[1]; [10]
  Probability of no increase in asterixis grade: 0.7910
  Cummulative number of events (increase in asterixis grade): 30
  Number of events (increase in asterixis grade): 3
[1]; [11]
  Probability of no increase in asterixis grade: 0.7637
  Cummulative number of events (increase in asterixis grade): 31
  Number of events (increase in asterixis grade): 1
[1]; Treatment interval ≥168 days
  Probability of no increase in asterixis grade: 0.7534
  Cummulative number of events (increase in asterixis grade): 32
  Number of events (increase in asterixis grade): 1
[1]; [12]
  Cumulative Occurrences of Events: 32
  Occurrences of Events: 1
[1]; [13]
  Cumulative Occurrences of Events: 13
  Occurrences of Events: 13
[1]; [14]
  Cumulative Occurrences of Events: 20
  Occurrences of Events: 7
[1]; [15]
  Cumulative Occurrences of Events: 27
  Occurrences of Events: 7
[1]; [16]
  Cumulative Occurrences of Events: 30
  Occurrences of Events: 3
[1]; [17]
  Cumulative Occurrences of Events: 31
  Occurrences of Events: 1
[1]; first study, rifaximin group
  subjects with increases in asterixis grade (of 140): 32
[1]; in vivo
  time to first increase in Asterixis grade vs placebo (FIG. 5, Kaplan Meier): increased time to the first increase in Asterixis grade
[2]; 24/266 subjects
  subjects with worsening of Conn score by 1 or 2 grades: 9.0%
[2]; continuing rifaximin group, 6/70 subjects
  incidence of worsening asterixis grades: 8.6%
[2]; last visit, 4 subjects of 67
  subjects with 2-grade improvement in asterixis among those entering with scores of 1, 2 or 3: 6.0%
[2]; last visit, 5 subjects of 67
  subjects with 3-grade improvement in asterixis among those entering with scores of 1, 2 or 3: 7.5%
[2]; last visit, 7 subjects of 84
  subjects with 2-grade improvement in Conn score among those entering with Conn 1, 2, or 3: 8.3%
[2]; last visit, 47 subjects of 84
  subjects with 1-grade improvement in Conn score among those entering with Conn 1, 2, or 3: 56.0%
[2]; new rifaximin group, 12/196 subjects
  incidence of worsening asterixis grades: 6.1%
[3]; [18]
  Cumulative Occurrences of Events: 37
  Occurrences of Events: 1
  Survival: 0.7302
[3]; [19]
  Cumulative Occurrences of Events: 17
  Occurrences of Events: 17
  Survival: 1.0000
[3]; [20]
  Cumulative Occurrences of Events: 22
  Occurrences of Events: 5
  Survival: 0.8777
[3]; [21]
  Cumulative Occurrences of Events: 31
  Occurrences of Events: 9
  Survival: 0.8407
[3]; [22]
  Cumulative Occurrences of Events: 36
  Occurrences of Events: 5
  Survival: 0.7713
[3]; [23]
  Cumulative Occurrences of Events: 36
  Occurrences of Events: 0
  Survival: 0.7302
[3]; [24]
  Cummulative number of events: 17
  Number of events: 17
  Probability of no increase in Conn score: 1.0000
[3]; [25]
  Cummulative number of events: 22
  Number of events: 5
[3]; [26]
  Cummulative number of events: 31
  Number of events: 9
[3]; [27]
  Cummulative number of events: 36
  Number of events: 5
[3]; [28]
  Cummulative number of events: 36
  Number of events: 0
[3]; [29]
  Cummulative number of events: 37
  Number of events: 1
[3]; first study, rifaximin group
  subjects with increases in Conn score (of 140): 37
[3]; in vivo
  time to first increase in Conn scores vs placebo (FIG. 4, Kaplan Meier): increased time to the first increase in Conn scores
[4]
  highest anticipated free plasma exposure: 0.03 µM
[5]
  in vitro activity against species of Staphylococcus, Streptococcus, Enterococcus, and Enterobacteriaceae: active
[6]; Baseline to Day 28
  Change from Baseline for Epworth Sleepiness Total Score, Max: 7
  Change from Baseline for Epworth Sleepiness Total Score, Mean: −0.2
  Change from Baseline for Epworth Sleepiness Total Score, Median: 0.0
  Change from Baseline for Epworth Sleepiness Total Score, Min: −14
[6]; Day 28
  Epworth Sleepiness Total Score, Max: 23
  Epworth Sleepiness Total Score, Mean: 10.0
  Epworth Sleepiness Total Score, Median: 9.0
  Epworth Sleepiness Total Score, Min: 0
